Source: ChEMBL document CHEMBL3390836, “Mannich- and LedererManasse-based analogues of the natural product S-(+)-curcuphenol as cancer proliferation and migration inhibitors” (Medchemcomm, 2012)

Columns and labels:
Type in all cases: functional
SK-MEL-2 [1] = assay: Cytotoxicity against human SK-MEL-2 cells assessed as cell growth at 10^-8 M after 48 hrs by SRB assay relative to control; settings: SK-MEL-2, 48 h, read-out: Activity
T47D [2] = assay: Cytotoxicity against human T47D cells assessed as cell growth at 10^-7 M after 48 hrs by SRB assay relative to control; settings: read-out: Activity
[3] = Cytotoxicity against human PC3 cells assessed as cell growth at 10^-4 M after 48 hrs by SRB assay relative to control; settings: PC-3, 48 h, read-out: Activity
SF-295 [4] = assay: Cytotoxicity against human SF295 cells assessed as cell growth at 10^-8 M after 48 hrs by SRB assay relative to control; settings: SF-295, 48 h, read-out: Activity
Malme-3M = assay: Cytotoxicity against human MALME-3M cells assessed as cell growth at 10^-4 M after 48 hrs by SRB assay relative to control; settings: read-out: Activity
RXF 393 = assay: Cytotoxicity against human RXF393 cells assessed as cell growth at 10^-7 M after 48 hrs by SRB assay relative to control; settings: RXF 393, 48 h, read-out: Activity
MDA-MB-468 = assay: Cytotoxicity against human MDA-MB-468 cells assessed as cell growth at 10^-6 M after 48 hrs by SRB assay relative to control; settings: MDA-MB-468, 48 h, read-out: Activity
IGROV-1 = assay: Cytotoxicity against human IGROV1 cells assessed as cell growth at 10^-4 M after 48 hrs by SRB assay relative to control; settings: IGROV-1, 48 h, read-out: Activity
SNB-19 = assay: Cytotoxicity against human SNB19 cells assessed as cell growth at 10^-8 M after 48 hrs by SRB assay relative to control; settings: SNB-19, 48 h, read-out: Activity
TK-10 = assay: Cytotoxicity against human TK10 cells assessed as cell growth at 10^-4 M after 48 hrs by SRB assay relative to control; settings: TK-10, 48 h, read-out: Activity
[5] = Cytotoxicity against human EKVX cells assessed as cell growth at 10^-8 M after 48 hrs by SRB assay relative to control; settings: read-out: Activity
LOX IMVI = assay: Cytotoxicity against human LOXIMVI cells assessed as cell growth at 10^-4 M after 48 hrs by SRB assay relative to control; settings: read-out: Activity
SF-268 [6] = assay: Cytotoxicity against human SF268 cells assessed as cell growth at 10^-6 M after 48 hrs by SRB assay relative to control; settings: SF-268, 48 h, read-out: Activity
NCI-H460 [7] = assay: Cytotoxicity against human NCI-H460 cells assessed as cell growth at 10^-8 M after 48 hrs by SRB assay relative to control; settings: NCI-H460, 48 h, read-out: Activity
[8] = Cytotoxicity against human PC3 cells assessed as cell growth at 10^-8 M after 48 hrs by SRB assay relative to control; settings: PC-3, 48 h, read-out: Activity
T47D [9] = assay: Cytotoxicity against human T47D cells assessed as cell growth at 10^-6 M after 48 hrs by SRB assay relative to control; settings: read-out: Activity
[10] = Cytotoxicity against human OVCAR4 cells assessed as cell growth at 10^-6 M after 48 hrs by SRB assay relative to control; settings: OVCAR-4, 48 h, read-out: Activity
NCI-H322M = assay: Cytotoxicity against human NCI-H322M cells after 48 hrs by SRB assay
[11] = Cytotoxicity against human UACC62 cells assessed as cell growth at 10^-6 M after 48 hrs by SRB assay relative to control; settings: UACC-62, 48 h, read-out: Activity
SF-295 [12] = assay: Cytotoxicity against human SF295 cells after 48 hrs by SRB assay; settings: SF-295, 48 h; for CC50: read-out: LC50 (the source's name)
[13] = Cytotoxicity against human HCT15 cells assessed as cell growth at 10^-8 M after 48 hrs by SRB assay relative to control; settings: HCT-15, 48 h, read-out: Activity
SF-268 [14] = assay: Cytotoxicity against human SF268 cells assessed as cell growth at 10^-4 M after 48 hrs by SRB assay relative to control; settings: SF-268, 48 h, read-out: Activity
SK-MEL-28 = assay: Cytotoxicity against human SK-MEL-28 cells after 48 hrs by SRB assay; settings: SK-MEL-28, 48 h; for CC50: read-out: LC50 (the source's name)
COLO 205 [15] = assay: Cytotoxicity against human COLO205 cells assessed as cell growth at 10^-7 M after 48 hrs by SRB assay relative to control; settings: COLO 205, 48 h, read-out: Activity
SNB-75 [16] = assay: Cytotoxicity against human SNB75 cells assessed as cell growth at 10^-8 M after 48 hrs by SRB assay relative to control; settings: SNB-75, 48 h, read-out: Activity
COLO 205 [17] = assay: Cytotoxicity against human COLO205 cells assessed as cell growth at 10^-6 M after 48 hrs by SRB assay relative to control; settings: COLO 205, 48 h, read-out: Activity
K562 [18] = assay: Cytotoxicity against human K562 cells assessed as cell growth at 10^-6 M after 48 hrs by SRB assay relative to control; settings: K562, 48 h, read-out: Activity
NCI-H460 [19] = assay: Cytotoxicity against human NCI-H460 cells assessed as cell growth at 10^-7 M after 48 hrs by SRB assay relative to control; settings: NCI-H460, 48 h, read-out: Activity
K562 [20] = assay: Cytotoxicity against human K562 cells assessed as cell growth at 10^-7 M after 48 hrs by SRB assay relative to control; settings: K562, 48 h, read-out: Activity
786-0 = assay: Cytotoxicity against human 786-0 cells assessed as cell growth at 10^-8 M after 48 hrs by SRB assay relative to control; settings: 786-0, 48 h, read-out: Activity
U-251 = assay: Cytotoxicity against human U251 cells after 48 hrs by SRB assay; settings: U-251, 48 h
MCF7 = assay: Cytotoxicity against human MCF7 cells assessed as cell growth at 10^-8 M after 48 hrs by SRB assay relative to control; settings: MCF7, 48 h, read-out: Activity
SK-MEL-2 [21] = assay: Cytotoxicity against human SK-MEL-2 cells assessed as cell growth at 10^-4 M after 48 hrs by SRB assay relative to control; settings: SK-MEL-2, 48 h, read-out: Activity
HT-29 = assay: Cytotoxicity against human HT-29 cells assessed as cell growth at 10^-4 M after 48 hrs by SRB assay relative to control; settings: HT-29, 48 h, read-out: Activity
[22] = Cytotoxicity against human UACC62 cells assessed as cell growth at 10^-8 M after 48 hrs by SRB assay relative to control; settings: UACC-62, 48 h, read-out: Activity
SK-MEL-5 = assay: Cytotoxicity against human SK-MEL-5 cells after 48 hrs by SRB assay; settings: SK-MEL-5, 48 h
SNB-75 [23] = assay: Cytotoxicity against human SNB75 cells after 48 hrs by SRB assay; settings: SNB-75, 48 h

SMILES: CC(C)=CCC[C@H](C)c1ccc(C)c2c1OCN(CC1CCNCC1)C2
- growth at 0.01 µM (SK-MEL-2 [1]): 108%
- growth at 0.1 µM (T47D [2]): 94%
- growth at 100 µM [3]: -46%
- growth at 0.01 µM (SF-295 [4]): 92%
- growth at 100 µM (Malme-3M): -76%
- growth at 0.1 µM (RXF 393): 112%
- growth at 1 µM (MDA-MB-468): 99%
- growth at 100 µM (IGROV-1): -86%
- growth at 0.01 µM (SNB-19): 95%
- growth at 100 µM (TK-10): -87%
- growth at 0.01 µM [5]: 104%
- growth at 100 µM (LOX IMVI): -80%
- growth at 1 µM (SF-268 [6]): 102%
- growth at 0.01 µM (NCI-H460 [7]): 108%
- growth at 0.01 µM [8]: 102%
- growth at 1 µM (T47D [9]): 91%
- growth at 1 µM [10]: 101%
- GI50 (NCI-H322M): 19.4 µM
- LC50 (NCI-H322M): 77.8 µM
- TGI (NCI-H322M): 38.8 µM
- growth at 1 µM [11]: 101%
- GI50 (SF-295 [12]): 15.9 µM
- TGI (SF-295 [12]): 34.9 µM
- CC50 (SF-295 [12]): 76.5 µM
- growth at 0.01 µM [13]: 93%
- growth at 100 µM (SF-268 [14]): -79%
- GI50 (SK-MEL-28): 15.7 µM
- TGI (SK-MEL-28): 28.3 µM
- CC50 (SK-MEL-28): 54.8 µM
- growth at 0.1 µM (COLO 205 [15]): 108%
- growth at 0.01 µM (SNB-75 [16]): 92%
- growth at 1 µM (COLO 205 [17]): 101%
- growth at 1 µM (K562 [18]): 93%
- growth at 0.1 µM (NCI-H460 [19]): 106%
- growth at 0.1 µM (K562 [20]): 99%
- growth at 0.01 µM (786-0): 96%
- GI50 (U-251): 2.75 µM
- LC50 (U-251): 31.6 µM
- TGI (U-251): 7.61 µM
- growth at 0.01 µM (MCF7): 98%
- growth at 100 µM (SK-MEL-2 [21]): -78%
- growth at 100 µM (HT-29): -66%
- growth at 0.01 µM [22]: 95%
- GI50 (SK-MEL-5): 4.97 µM
- LC50 (SK-MEL-5): 49.8 µM
- TGI (SK-MEL-5): 18.3 µM
- GI50 (SNB-75 [23]): 11.9 µM
- LC50 (SNB-75 [23]): 49.6 µM
- TGI (SNB-75 [23]): 24.3 µM

SMILES: CC(C)=CCC[C@H](C)c1ccc(C)c(CNCC2CCNCC2)c1O
- growth at 0.01 µM (SK-MEL-2 [1]): 102%
- growth at 0.1 µM (T47D [2]): 100%
- growth at 100 µM [3]: 6%
- growth at 0.01 µM (SF-295 [4]): 96%
- growth at 100 µM (Malme-3M): -62%
- growth at 0.1 µM (RXF 393): 85%
- growth at 1 µM (MDA-MB-468): 90%
- growth at 100 µM (IGROV-1): 24%
- growth at 0.01 µM (SNB-19): 92%
- growth at 100 µM (TK-10): -15%
- growth at 0.01 µM [5]: 99%
- growth at 100 µM (LOX IMVI): -79%
- growth at 1 µM (SF-268 [6]): 92%
- growth at 0.01 µM (NCI-H460 [7]): 101%
- growth at 0.01 µM [8]: 97%
- growth at 1 µM (T47D [9]): 84%
- growth at 1 µM [10]: 101%
- GI50 (NCI-H322M): 7.02 µM
- LC50 (NCI-H322M): > 25 µM
- TGI (NCI-H322M): > 25 µM
- growth at 1 µM [11]: 86%
- GI50 (SF-295 [12]): 3.31 µM
- TGI (SF-295 [12]): 7.53 µM
- CC50 (SF-295 [12]): 17.1 µM
- growth at 0.01 µM [13]: 102%
- growth at 100 µM (SF-268 [14]): 14%
- GI50 (SK-MEL-28): 4.2 µM
- TGI (SK-MEL-28): 7.89 µM
- CC50 (SK-MEL-28): 14.8 µM
- growth at 0.1 µM (COLO 205 [15]): 101%
- growth at 0.01 µM (SNB-75 [16]): 90%
- growth at 1 µM (COLO 205 [17]): 107%
- growth at 1 µM (K562 [18]): 91%
- growth at 0.1 µM (NCI-H460 [19]): 98%
- growth at 0.1 µM (K562 [20]): 99%
- growth at 0.01 µM (786-0): 93%
- GI50 (U-251): 3.72 µM
- LC50 (U-251): 15.9 µM
- TGI (U-251): 7.69 µM
- growth at 0.01 µM (MCF7): 90%
- growth at 100 µM (SK-MEL-2 [21]): -70%
- growth at 100 µM (HT-29): -66%
- growth at 0.01 µM [22]: 97%
- GI50 (SK-MEL-5): 3.41 µM
- LC50 (SK-MEL-5): 12.9 µM
- TGI (SK-MEL-5): 6.63 µM
- GI50 (SNB-75 [23]): 3.89 µM
- LC50 (SNB-75 [23]): > 25 µM
- TGI (SNB-75 [23]): 12.3 µM
